Measurements reported in ChEMBL document CHEMBL5584238, “Psammaplin A analogues with modified disulfide bond targeting histone deacetylases: Synthesis and biological evaluation” (Eur J Med Chem, 2024).
Activity calls are given as the source filed them. No cut-off for these calls is given here.

Key:
[1] = test system: EBC-1; assay: Antiproliferative activity against human EBC-1 cells incubated for 48 hrs by MTT assay; assay type: functional, cell-based; settings: EBC-1, 48 h
[2] = test system: NCI-H1581; assay: Antiproliferative activity against human NCI-H1581 cells incubated for 48 hrs by MTT assay; assay type: functional, cell-based; settings: NCI-H1581, 48 h
[3] = test system: HCT-116; assay: Antiproliferative activity against human HCT-116 cells incubated for 48 hrs by MTT assay; assay type: functional, cell-based; settings: HCT-116, 48 h
[4] = biological target: Histone deacetylase 1 (Homo sapiens, UniProt Q13547); assay: Inhibition of recombinant human HDAC1 using Boc-Lys(Ac)-AMC as substrate preincubated for 1 hr followed by substrate addition and measured after 2 hrs by microplate reader assay
Sequence of Histone deacetylase 1 (Q13547 whole entry): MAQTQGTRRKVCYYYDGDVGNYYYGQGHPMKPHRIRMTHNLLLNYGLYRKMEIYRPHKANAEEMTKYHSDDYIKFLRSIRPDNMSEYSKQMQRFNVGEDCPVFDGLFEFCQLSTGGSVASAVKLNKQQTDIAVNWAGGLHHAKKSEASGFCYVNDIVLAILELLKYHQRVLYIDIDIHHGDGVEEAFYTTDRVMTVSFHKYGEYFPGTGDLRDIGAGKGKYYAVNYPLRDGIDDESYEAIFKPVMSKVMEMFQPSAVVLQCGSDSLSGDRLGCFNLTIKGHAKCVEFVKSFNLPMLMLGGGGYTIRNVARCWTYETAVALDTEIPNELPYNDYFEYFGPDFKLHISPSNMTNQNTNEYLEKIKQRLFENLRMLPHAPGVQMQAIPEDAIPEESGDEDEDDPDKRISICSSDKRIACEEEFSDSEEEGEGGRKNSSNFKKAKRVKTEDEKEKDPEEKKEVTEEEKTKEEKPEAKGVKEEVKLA

[5] = biological target: T1, Protein deacetylase HDAC6 (Homo sapiens, UniProt Q9UBN7); assay: Inhibition of recombinant human HDAC6 using Boc-Lys(Ac)-AMC as substrate preincubated for 1 hr followed by substrate addition and measured after 2 hrs by microplate reader assay
T1 sequence (Q9UBN7 whole entry): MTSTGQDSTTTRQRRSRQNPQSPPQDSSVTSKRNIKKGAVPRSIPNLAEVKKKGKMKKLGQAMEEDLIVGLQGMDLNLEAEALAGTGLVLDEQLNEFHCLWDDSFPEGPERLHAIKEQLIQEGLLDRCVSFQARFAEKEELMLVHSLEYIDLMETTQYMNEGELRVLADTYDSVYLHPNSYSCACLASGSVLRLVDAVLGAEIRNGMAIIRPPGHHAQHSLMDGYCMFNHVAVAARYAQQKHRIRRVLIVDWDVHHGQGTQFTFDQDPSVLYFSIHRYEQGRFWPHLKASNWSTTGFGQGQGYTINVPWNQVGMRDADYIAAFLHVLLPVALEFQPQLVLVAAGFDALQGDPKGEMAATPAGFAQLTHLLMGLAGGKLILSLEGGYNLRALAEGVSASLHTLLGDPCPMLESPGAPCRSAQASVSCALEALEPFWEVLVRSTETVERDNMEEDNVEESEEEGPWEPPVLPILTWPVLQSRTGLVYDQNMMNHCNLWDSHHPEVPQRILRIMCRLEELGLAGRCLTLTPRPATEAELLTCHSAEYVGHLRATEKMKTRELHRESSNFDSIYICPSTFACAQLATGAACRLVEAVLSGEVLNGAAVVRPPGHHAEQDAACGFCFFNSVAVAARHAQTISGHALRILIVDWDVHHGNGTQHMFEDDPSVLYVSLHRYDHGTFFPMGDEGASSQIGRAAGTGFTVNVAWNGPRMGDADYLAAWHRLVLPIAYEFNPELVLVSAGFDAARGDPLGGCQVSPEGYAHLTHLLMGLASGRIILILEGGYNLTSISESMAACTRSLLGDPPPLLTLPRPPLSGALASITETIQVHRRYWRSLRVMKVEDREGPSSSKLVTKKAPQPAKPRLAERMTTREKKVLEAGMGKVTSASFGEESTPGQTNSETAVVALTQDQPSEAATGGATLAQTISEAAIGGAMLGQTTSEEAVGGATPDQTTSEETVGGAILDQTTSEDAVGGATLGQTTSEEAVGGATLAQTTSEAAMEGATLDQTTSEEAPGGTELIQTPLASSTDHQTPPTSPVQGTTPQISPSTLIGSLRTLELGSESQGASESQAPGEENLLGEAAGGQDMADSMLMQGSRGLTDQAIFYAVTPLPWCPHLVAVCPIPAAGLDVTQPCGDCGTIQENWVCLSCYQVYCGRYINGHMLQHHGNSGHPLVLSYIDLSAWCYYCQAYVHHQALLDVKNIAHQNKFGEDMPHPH

[6] = biological target: Class 1 histone deacetylase (Homo sapiens) (UniProt Q13547+O15379+Q92769+Q9BY41); assay: Inhibition of class 1 HDACs in human HCT-116 cells assessed as upregulation of acetylated alpha-H3 level at 1 uM incubated for 24 hrs by Western blotting analysis; assay type: cell-based
Sequence of Class 1 histone deacetylase (Homo sapiens) (O15379 whole entry, looked up): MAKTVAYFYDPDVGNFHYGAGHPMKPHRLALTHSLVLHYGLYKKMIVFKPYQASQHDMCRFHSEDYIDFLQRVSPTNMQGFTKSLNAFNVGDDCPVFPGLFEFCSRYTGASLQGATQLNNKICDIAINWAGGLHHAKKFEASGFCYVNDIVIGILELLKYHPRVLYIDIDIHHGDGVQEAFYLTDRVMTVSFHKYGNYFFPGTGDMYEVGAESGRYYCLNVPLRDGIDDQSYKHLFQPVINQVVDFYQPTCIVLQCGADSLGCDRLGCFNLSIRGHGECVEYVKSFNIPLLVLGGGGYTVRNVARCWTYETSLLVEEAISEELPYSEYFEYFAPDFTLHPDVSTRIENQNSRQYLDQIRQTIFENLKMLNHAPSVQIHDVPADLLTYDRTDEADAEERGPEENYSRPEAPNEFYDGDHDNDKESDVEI
Sequence of Class 1 histone deacetylase (Homo sapiens) (Q13547 whole entry, looked up): as the sequence (Q13547 whole entry) above
Sequence of Class 1 histone deacetylase (Homo sapiens) (Q92769 whole entry, looked up): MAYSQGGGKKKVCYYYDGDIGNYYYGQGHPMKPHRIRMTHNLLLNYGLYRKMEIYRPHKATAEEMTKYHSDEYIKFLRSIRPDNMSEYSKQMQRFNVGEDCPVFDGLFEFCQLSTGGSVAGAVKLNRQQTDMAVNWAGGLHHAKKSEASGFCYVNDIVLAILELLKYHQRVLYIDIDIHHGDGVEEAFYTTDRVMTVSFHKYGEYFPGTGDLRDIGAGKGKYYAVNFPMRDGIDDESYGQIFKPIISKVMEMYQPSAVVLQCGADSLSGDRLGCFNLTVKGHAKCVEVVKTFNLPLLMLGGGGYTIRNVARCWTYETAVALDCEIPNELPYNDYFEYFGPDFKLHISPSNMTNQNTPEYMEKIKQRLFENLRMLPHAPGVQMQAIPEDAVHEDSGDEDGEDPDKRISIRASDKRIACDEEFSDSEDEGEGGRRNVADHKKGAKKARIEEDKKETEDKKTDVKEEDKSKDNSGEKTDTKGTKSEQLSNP
Sequence of Class 1 histone deacetylase (Homo sapiens) (Q9BY41 whole entry, looked up): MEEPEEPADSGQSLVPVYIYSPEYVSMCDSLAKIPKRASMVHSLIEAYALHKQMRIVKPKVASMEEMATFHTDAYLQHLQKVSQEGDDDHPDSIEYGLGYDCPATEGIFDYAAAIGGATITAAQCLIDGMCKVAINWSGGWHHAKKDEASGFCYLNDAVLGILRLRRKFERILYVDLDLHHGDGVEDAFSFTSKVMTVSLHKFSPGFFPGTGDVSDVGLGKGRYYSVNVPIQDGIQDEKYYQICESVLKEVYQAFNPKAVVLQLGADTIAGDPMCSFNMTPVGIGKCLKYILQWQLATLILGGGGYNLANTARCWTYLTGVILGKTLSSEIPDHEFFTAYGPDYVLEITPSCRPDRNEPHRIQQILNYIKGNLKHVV

[7] = biological target: T2, Protein deacetylase HDAC6 (Homo sapiens) (UniProt Q9UBN7); assay: Inhibition of HDAC6 in human HCT-116 cells assessed as upregulation of acetylated alpha-tubulin level at 1 uM incubated for 24 hrs by Western blotting analysis; assay type: cell-based
T2 sequence (whole entry): T1 sequence (Q9UBN7 whole entry)

Structure (SMILES)	IC50 [2] [µM]	IC50 [3] [µM]	IC50 [4] [µM]	IC50 [5] [µM]	inhibition [6]	inhibition [7]	IC50 [1] [µM]
N#Cc1ccc(COc2ccc(C/C(=N\O)C(=O)NC3CSSC3)cc2)cc1	> 10	> 10	–	–	–	–	> 10
O=C(NC1C[Se][Se]C1)/C(Cc1ccc(O)cc1)=N/O	> 10	> 10	–	–	–	–	> 10
O=C(NC1CS[Se]C1)/C(Cc1ccc(O)c(Br)c1)=N/O (configuration not stated)	0.93	1.53	–	–	–	–	3.31
O=C(NC1CC[Se][Se]C1)/C(Cc1ccc(O)c(Br)c1)=N/O (configuration not stated)	> 10	> 10	–	–	–	–	> 10
O=C(NC1CS[Se]C1)/C(Cc1ccc(O)cc1)=N/O (configuration not stated)	0.84	3.3	–	–	–	–	3.47
O=C(NC1CSSC1)/C(Cc1cccc(F)c1)=N/O	> 10	> 10	–	–	–	–	> 10
O=C(NC1CC[Se][Se]C1)/C(Cc1cccc(F)c1)=N/O (configuration not stated)	> 10	> 10	–	–	–	–	> 10
O=C(NC1CCS[Se]C1)/C(Cc1ccc(Cl)s1)=N/O (configuration not stated)	2.46	> 10	–	–	–	–	> 10
O=C(NC1CCSSC1)/C(Cc1ccc(O)cc1)=N/O (configuration not stated)	> 10	> 10	–	–	–	–	> 10
O=C(NC1C[Se][Se]C1)/C(Cc1ccc(O)c(Br)c1)=N/O	> 10	> 10	–	–	–	–	> 10
O=C(NC1CCS[Se]C1)/C(Cc1ccc(Br)s1)=N/O (configuration not stated)	3.6	> 10	–	–	–	–	> 10
O=C(NC1CCSSC1)/C(Cc1cccc(F)c1)=N/O (configuration not stated)	> 10	> 10	–	–	–	–	> 10
O=C(NC1CC[Se][Se]C1)/C(Cc1ccc(O)cc1)=N/O (configuration not stated)	> 10	> 10	–	–	–	–	> 10
O=C(NC1CCS[Se]C1)/C(Cc1ccc(O)cc1)=N/O (configuration not stated)	2.24	> 10	–	–	–	–	> 10
O=C(NC1CC[Se]SC1)/C(Cc1ccc(O)cc1)=N/O (configuration not stated)	1.28	> 10	–	–	–	–	> 10
O=C(NC1CCSSC1)/C(Cc1ccc(O)c(Br)c1)=N/O (configuration not stated)	> 10	> 10	–	–	–	–	> 10
O=C(NC1CC[Se]SC1)/C(Cc1ccc(Br)s1)=N/O (configuration not stated)	1.44	> 10	–	–	–	–	> 10
O=C(NC1CC[Se]SC1)/C(Cc1ccc(Cl)s1)=N/O (configuration not stated)	1.1	> 10	–	–	–	–	> 10

Second part, led by results:

IC50 [2] [µM]	IC50 [3] [µM]	IC50 [4] [µM]	IC50 [5] [µM]	inhibition [6]	inhibition [7]	Structure (SMILES)	IC50 [1] [µM]
3.75	3.52	–	–	–	–	CC(C)(CNC(=O)/C(Cc1ccc(O)c(Br)c1)=N/O)SSCCNC(=O)/C(Cc1ccc(O)c(Br)c1)=N/O	> 10
0.3	0.41	0.57	3.6	Active	Active	O=C(NCC[Se][Se]CCNC(=O)/C(Cc1ccc(Br)s1)=N/O)/C(Cc1ccc(Br)s1)=N/O	0.72
4.02	5.48	–	–	–	–	O=C(NCCSSCCNC(=O)/C(Cc1ccc(Cl)s1)=N/O)/C(Cc1ccc(Cl)s1)=N/O	> 10
> 10	9.67	–	–	–	–	O=C(NC1CSSC1)/C(Cc1ccc(O)cc1)=N/O	> 10
> 10	6.02	–	–	–	–	O=C(NC1CSSC1)/C(Cc1ccc(O)c(Br)c1)=N/O	> 10
> 10	6.9	–	–	–	–	Cc1ccc(C/C(=N\O)C(=O)NCCSSCCNC(=O)/C(Cc2ccc(C)o2)=N/O)o1	> 10
> 10	1.74	–	–	–	–	O=C(NCCSSCCNC(=O)/C(Cc1ccc(Br)o1)=N/O)/C(Cc1ccc(Br)o1)=N/O	> 10
> 10	5.53	–	–	–	–	CC(C)(CNC(=O)/C(Cc1ccc(O)c(Br)c1)=N/O)SSC(C)(C)CNC(=O)/C(Cc1ccc(O)c(Br)c1)=N/O	> 10
–	6.57	–	–	–	–	O=C(NCCSSCCNC(=O)/C(Cc1ccc(O)cc1)=N/O)/C(Cc1ccc(O)cc1)=N/O	–
0.28	0.5	–	–	–	–	O=C(NCC[Se][Se]CCNC(=O)/C(Cc1ccc(Cl)s1)=N/O)/C(Cc1ccc(Cl)s1)=N/O	1.36
0.16	0.19	–	–	–	–	O=C(NCC[Se][Se]CCNC(=O)/C(Cc1cccs1)=N/O)/C(Cc1cccs1)=N/O	1.13
> 10	8.97	–	–	–	–	O=C(NCCSSCCNC(=O)/C(Cc1ccsc1)=N/O)/C(Cc1ccsc1)=N/O	> 10
6.16	4.94	–	–	–	–	O=C(NCCSSCCNC(=O)/C(Cc1cccs1)=N/O)/C(Cc1cccs1)=N/O	> 10
> 10	> 10	–	–	–	–	O=C(NCCSSCCNC(=O)/C(Cc1ccco1)=N/O)/C(Cc1ccco1)=N/O	> 10
> 10	> 10	–	–	–	–	O=C(NCCSSCCNC(=O)/C(Cc1ccc[nH]1)=N/O)/C(Cc1ccc[nH]1)=N/O	> 10
4.17	2.22	–	–	–	–	O=C(NCCSSCCNC(=O)/C(Cc1ccc(Br)s1)=N/O)/C(Cc1ccc(Br)s1)=N/O	> 10
0.3	0.41	–	–	–	–	O=C(NCC[Se][Se]CCNC(=O)/C(Cc1ccco1)=N/O)/C(Cc1ccco1)=N/O	0.45
